20 compounds from ChEMBL document CHEMBL1131394, “Design and synthesis of N-alkylated saccharins as selective alpha-1a adrenergic receptor antagonists” (Bioorg Med Chem Lett, 1998) can be followed below.

For assay [1], the target named is T1, Alpha-1D adrenergic receptor (Homo sapiens, UniProt P25100).
T1 sequence (P25100 whole entry): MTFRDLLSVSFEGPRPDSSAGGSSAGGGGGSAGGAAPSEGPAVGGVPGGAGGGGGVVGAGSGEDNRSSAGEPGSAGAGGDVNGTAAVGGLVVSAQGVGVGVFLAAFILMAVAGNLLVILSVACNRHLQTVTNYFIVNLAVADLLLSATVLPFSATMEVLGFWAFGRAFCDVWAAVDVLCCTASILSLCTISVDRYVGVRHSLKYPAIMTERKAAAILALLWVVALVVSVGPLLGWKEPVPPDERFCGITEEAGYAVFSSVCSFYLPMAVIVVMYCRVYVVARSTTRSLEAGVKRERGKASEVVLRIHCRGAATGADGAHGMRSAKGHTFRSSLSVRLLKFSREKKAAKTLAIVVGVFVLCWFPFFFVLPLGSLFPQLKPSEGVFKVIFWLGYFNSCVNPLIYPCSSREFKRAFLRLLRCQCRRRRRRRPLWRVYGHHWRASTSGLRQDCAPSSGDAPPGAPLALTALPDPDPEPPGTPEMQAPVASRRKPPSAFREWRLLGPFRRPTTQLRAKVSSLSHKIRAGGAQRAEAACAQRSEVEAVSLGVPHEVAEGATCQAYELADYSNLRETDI
Briefly: Ability to displace beta ([125I]-iodo-4-hydroxyphenyl) ethylamino methyl tetralone from human cloned Alpha-1d adrenergic receptor stably expressed in HEK cells. It counts as cell-based, HEK293.

Assay [2] deals with T2, Alpha-1A adrenergic receptor (Homo sapiens, UniProt P35348).
T2 sequence (P35348 whole entry): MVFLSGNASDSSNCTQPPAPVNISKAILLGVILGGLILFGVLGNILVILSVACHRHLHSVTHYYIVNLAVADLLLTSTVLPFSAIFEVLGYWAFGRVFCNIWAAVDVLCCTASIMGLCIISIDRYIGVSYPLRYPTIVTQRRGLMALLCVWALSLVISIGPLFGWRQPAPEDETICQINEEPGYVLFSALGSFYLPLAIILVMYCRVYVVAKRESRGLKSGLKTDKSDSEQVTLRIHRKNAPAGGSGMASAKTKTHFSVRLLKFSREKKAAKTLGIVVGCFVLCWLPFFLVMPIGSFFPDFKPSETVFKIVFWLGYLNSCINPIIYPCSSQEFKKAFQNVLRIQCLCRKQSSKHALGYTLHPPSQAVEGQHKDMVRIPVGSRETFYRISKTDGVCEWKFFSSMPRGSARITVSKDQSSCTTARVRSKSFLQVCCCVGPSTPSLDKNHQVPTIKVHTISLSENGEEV
Description: Ability to displace beta ([125I]-iodo-4-hydroxyphenyl)-ethylamino methyl tetralone from human cloned Alpha-1a adrenergic receptor stably expressed in Chinese Hamster Ovary (CHO) cells. The format is cell-based.

In assay [3] the target is T3, Alpha-1B adrenergic receptor (Homo sapiens, UniProt P35368).
T3 sequence (P35368 whole entry): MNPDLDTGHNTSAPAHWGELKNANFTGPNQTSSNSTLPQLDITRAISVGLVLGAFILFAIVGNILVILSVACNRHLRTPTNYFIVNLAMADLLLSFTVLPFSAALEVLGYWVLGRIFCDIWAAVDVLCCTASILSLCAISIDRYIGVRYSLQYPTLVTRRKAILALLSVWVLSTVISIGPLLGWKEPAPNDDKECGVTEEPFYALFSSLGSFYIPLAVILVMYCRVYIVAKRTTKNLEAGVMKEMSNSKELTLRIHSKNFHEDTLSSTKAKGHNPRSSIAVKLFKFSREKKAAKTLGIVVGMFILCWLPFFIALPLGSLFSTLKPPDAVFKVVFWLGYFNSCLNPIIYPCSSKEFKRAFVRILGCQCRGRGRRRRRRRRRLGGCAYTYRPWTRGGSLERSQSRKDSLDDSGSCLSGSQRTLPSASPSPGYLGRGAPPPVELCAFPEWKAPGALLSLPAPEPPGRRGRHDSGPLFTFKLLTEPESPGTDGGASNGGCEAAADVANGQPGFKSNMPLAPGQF
Briefly: Ability to displace beta ([125I]-iodo-4-hydroxyphenyl)-ethylamino methyl tetralone from human cloned Alpha-1b adrenergic receptor stably expressed in LM cells. It counts as cell-based.

Assay [4] concerns the target T4, Adrenergic receptors; alpha-1 A & B (Homo sapiens) (UniProt P35348+P35368). Briefly: Selectivity towards alpha-1a over alpha-1b receptor; 97x. It counts as protein assay.
Assay [5] deals with T5, Alpha adrenergic receptor (1a and 1d) (Homo sapiens) (UniProt P35348+P25100). Briefly: Selectivity towards Alpha-1A over alpha1d receptor; 208x. The format is protein assay.
The target of assay [6] is T2, Alpha-1A adrenergic receptor. Briefly: Ability to displace beta ([125I]-iodo-4-hydroxyphenyl)-ethylaminomethyl tetralone from human cloned Alpha-1a adrenergic receptor stably expressed in Chinese Hamster Ovary (CHO) cells. The format is cell-based.
In assay [7] the target is T1, Alpha-1D adrenergic receptor. Briefly: Ability to displace beta ([125I]-iodo-4-hydroxyphenyl)-ethylamino methyl tetralone from human cloned Alpha-1d adrenergic receptor stably expressed in COS-7 cells. It counts as cell-based.
The target in assay [8] is T2, Alpha-1A adrenergic receptor. Briefly: Ability to displace beta ([125I]-iodo-4-hydroxyphenyl)-ethylaminomethyl tetralone from human cloned Alpha-1a adrenergic receptor stably expressed in COS-7 cells. The format is cell-based.
Assay [9] has as its target T3, Alpha-1B adrenergic receptor. Description: Ability to displace beta ([125I]-iodo-4-hydroxyphenyl)-ethylamino methyl tetralone from human cloned Alpha-1b adrenergic receptor stably expressed in COS-7 cells. The format is cell-based.
Assay [10] deals with T4, Adrenergic receptors; alpha-1 A & B (Homo sapiens). Briefly: Selectivity towards Alpha-1A over alpha-1b receptor; 11x. It counts as protein assay.
The target in assay [11] is T5, Alpha adrenergic receptor (1a and 1d) (Homo sapiens). Briefly: Selectivity towards Alpha-1A over alpha-1d receptor; 56x. It counts as protein assay.
Assay [12] concerns the target T2, Alpha-1A adrenergic receptor. Description: Ability to displace beta ([125I]-iodo-4-hydroxyphenyl)-ethylaminomethyl tetralone from human cloned Alpha-1a adrenergic receptor stably expressed in CHO cells. It counts as cell-based.
The subject of assay [13] is Canis familiaris. Description: In vivo inhibitory activity against […]-induced increase in diastolic blood pressure (DBP) in dog. It counts as functional, Canis lupus familiaris, Artery.
The test system of assay [14] is Canis familiaris. Description: In vivo inhibitory activity against […]-induced increase in urethral pressure (IUP) in dog. It counts as functional, Canis lupus familiaris, Urethra.
Assay [15] concerns the target T4, Adrenergic receptors; alpha-1 A & B (Homo sapiens). Description: Selectivity towards Alpha-1A over alpha-1b receptor; 188x. The format is protein assay.
In assay [16] the target is T5, Alpha adrenergic receptor (1a and 1d) (Homo sapiens). Briefly: Selectivity towards Alpha-1A over alpha-1d receptor; 266x. It counts as protein assay.
Assay [17] deals with T2, Alpha-1A adrenergic receptor. Briefly: Ability to displace beta ([125I]-iodo-4-hydroxyphenyl)-ethylaminomethyl tetralone from human cloned Alpha-1a adrenergic receptor stably expressed in CHO cells.
The target in assay [18] is T4, Adrenergic receptors; alpha-1 A & B (Homo sapiens). Briefly: Selectivity towards Alpha-1A over alpha-1b receptor; 5x. The format is protein assay.
Assay [19] concerns the target T5, Alpha adrenergic receptor (1a and 1d) (Homo sapiens). Briefly: Selectivity towards Alpha-1A over alpha1d receptor; 11x. The format is protein assay.
Assay [20] shares this target. Briefly: Selectivity towards alpha-1a over alpha1d receptor; 5.5x. The format is protein assay.
Assay [21] deals with T4, Adrenergic receptors; alpha-1 A & B (Homo sapiens). Briefly: Selectivity towards Alpha-1A over alpha-1b receptor; 3.3x. It counts as protein assay.

Consider `Cc1ccc2c(c1)oc(=O)n2C1CCN(CCCCN2C(=O)c3ccccc3S2(=O)=O)CC1`, for which the Ki in assay [1] is 644 nM; in assay [2], 3.1 nM; in [3] it was 301 nM. The figures for the Selectivity in assay [4] and in [5] were 97 and 208, respectively.

As to `Cc1ccc2oc(=O)n(C3CCN(CCCCN4C(=O)c5ccccc5S4(=O)=O)CC3)c2c1`, the figures for the Ki in assay [1], in assay [2] and in [3] were 136 nM, 1.2 nM and 37 nM, respectively.

Turning to `O=C1c2ccccc2C(=O)N1CCCCN1CCC(n2c(=O)[nH]c3ccccc32)CC1`, the values for the Ki in assay [1], in assay [2] and in [3] were 16 nM, 0.28 nM and 3 nM, respectively.

As for `COc1ccc2c(c1)C(=O)N(CCCCN1CCC(n3c(=O)oc4ccccc43)CC1)S2(=O)=O`, the Ki is 76 nM in assay [1], 15 nM in assay [3] and 0.064 nM in assay [6].

Consider `CS(=O)(=O)c1ccc2c(c1)S(=O)(=O)N(CCCCN1CCC(n3c(=O)oc4ccccc43)CC1)C2=O`, for which the Ki in assay [7] came to 210 nM; in assay [8], 2.4 nM; in [9], 6.8 nM.

Consider `Cc1cccc2oc(=O)n(C3CCN(CCCCN4C(=O)c5ccccc5S4(=O)=O)CC3)c12`, for which the Ki was 1020 nM in assay [1], 147 nM in assay [2] and 1150 nM in [3].

With `O=C1c2ccccc2C(=O)N1CCCCN1CCC(n2c(O)nc3ccccc32)CC1`, the Selectivity came out at 11 in assay [10] and 56 in assay [11].

With `O=C1c2ccccc2S(=O)(=O)N1CCCCN1CCC(n2c(=O)oc3cc4c(cc32)CCCC4)CC1`, the Ki in [1] turned out to be 894 nM; in assay [2] it was 90 nM; in assay [3] it was 676 nM.

As to `O=C1c2ccccc2S(=O)(=O)N1CCCCN1CCC(n2c(=O)oc3ccccc32)CC1`, the results for the Ki in assay [1], in [2] and in [3] were 41 nM, 0.12 nM and 14 nM, respectively.

Consider `O=C1c2ccc([N+](=O)[O-])cc2S(=O)(=O)N1CCCCN1CCC(n2c(=O)oc3ccccc32)CC1`, for which the Ki worked out at 75 nM in assay [1], 0.16 nM in assay [12] and 75 nM in [3].

Turning to `COc1cc2nc(N3CCN(C(=O)C4CCCO4)CC3)nc(N)c2cc1OC` (stereo unspecified) [TERAZOSIN], the Kb in the assay on Canis familiaris [13] amounted to 17 µg/kg; in the assay on Canis familiaris [14] it was 16 µg/kg.

For the compound `O=C1c2cc(F)ccc2S(=O)(=O)N1CCCCN1CCC(n2c(=O)oc3ccccc32)CC1`, the inhibition constant Ki in assay [1] is 71 nM; in assay [3], 50 nM; in [17], 0.27 nM. The Selectivity in [15] amounted to 188; in [16], 266.

For `O=C1c2ccccc2S(=O)(=O)N1CCCCN1CCC(n2c(=O)oc3cc(F)ccc32)CC1`, the Ki in [1] is 25 nM; in [2], 0.084 nM; in assay [3], 7.3 nM.

Turning to `O=C1c2cc([N+](=O)[O-])ccc2S(=O)(=O)N1CCCCN1CCC(n2c(=O)oc3ccccc32)CC1`, the Ki in assay [1] came to 351 nM; in assay [2], 0.13 nM; in assay [3], 133 nM.

For `CSc1ccc2c(c1)C(=O)N(CCCCN1CCC(n3c(=O)oc4ccccc43)CC1)S2(=O)=O`, the Ki in [1] is 59 nM; in [12], 0.057 nM; in [3], 10 nM.

`O=C1c2cc(Cl)ccc2S(=O)(=O)N1CCCCN1CCC(n2c(=O)oc3ccccc32)CC1` came in with an inhibitory constant (Ki) in assay [1] of 85 nM. For the same compound, the Kb with Canis familiaris [13] is 156 µg/kg; with Canis familiaris [14], 5.5 µg/kg.

For the compound `Cc1ccc2c(c1)C(=O)N(CCCCN1CCC(n3c(=O)oc4ccccc43)CC1)S2(=O)=O`, the Ki in assay [1] was determined as 73 nM; in assay [3], 20 nM; in assay [6], 0.099 nM.

With `Cc1cc(C)c2oc(=O)n(C3CCN(CCCCN4C(=O)c5ccccc5S4(=O)=O)CC3)c2c1`, the values for the Ki in assay [1], in assay [2] and in [3] were 224 nM, 20 nM and 108 nM, respectively. For the same compound, the Selectivity turned out to be 5 in assay [18] and 11 in assay [19].

On to `COc1ccc2c(c1)oc(=O)n2C1CCN(CCCCN2C(=O)c3ccccc3S2(=O)=O)CC1`, for which the values for the Ki in assay [1], in assay [2] and in assay [3] were 2750 nM, 499 nM and 1650 nM, respectively. In addition, the Selectivity in assay [20] amounted to 5.5; in assay [21], 3.3.

For `COC(=O)c1ccc2c(c1)oc(=O)n2C1CCN(CCCCN2C(=O)c3ccccc3S2(=O)=O)CC1`, the Ki in assay [1] amounted to 3430 nM; in assay [2] it was 1030 nM; in assay [3], 1960 nM.
